Read-outs that look alike come from different tables or passages of the source.
Columns and labels:
clinical = conditions: human, in vivo, po
Protocol: Two randomized, double-blind, placebo controlled, rising dose, crossover studies evaluated the single-dose pharmacokinetics of oral cilansetron over a 4 mg to 64 mg dose range. In one study, 24 male subjects (aged 21-36 years) received, at intervals of […], single oral doses of 4, 8, and 16 mg cilansetron in ascending order and a randomized placebo. In the other study, 24 male subjects received, at intervals of ≧1 week, single oral doses of 16, 32, and 64 mg cilansetron in ascending order and a randomized placebo. All doses were administered under fasted conditions. […] Renal excretion of cilansetron was negligible across all doses, with undetectable or very low amounts (<1% of the dose) excreted unchanged in urine.
Data for the evaluation of dose proportionality of oral cilansetron is available from three studies which have evaluated the pharmacokinetics of single doses over a 2 mg to 64 mg dose range. Two randomized, double-blind, placebo controlled, rising dose, crossover studies, in 24 male subjects each, evaluated the single dose pharmacokinetics of oral cilansetron (capsules) over a 4-16 mg and 16-64 mg dose range, respectively. In each study, subjects received, at intervals of ≧1 week, single oral doses of cilansetron in ascending order and a randomized placebo. All doses were administered under fasted conditions. A third open-label, randomized, parallel-group study in 36 male and female subjects, evaluated the single dose pharmacokinetics of a cilansetron 2 mg tablet administered under fed conditions. FIG. 16 to FIG. 19 present box plots of cilansetron AUC(0-inf) and Cmax from these three studies (males only), and corresponding dose-normalized values (normalized to a 1 mg dose). […] Table 2.7.2.3.14 presents descriptive statistics of cilansetron dose-normalized AUC and Cmax in these studies, and the results of statistical comparisons between doses.

[1] = tested on: diarrhea-predominant IBS subjects; assay type: in vivo, human; design: key to Daily stool consistency score, mean change from Baseline at end of treatment / Mean stool consistency score at end of treatment / Stool consistency, mean change from rerandomization Baseline: stool consistency on a seven-point daily diary scale
From the text: Studies S24 1.3.OO6, S24 1.3.0 1 1, and S24 1.3.009 used the following efficacy measurements: • The subjects answered the following three questions with “yes” or “no” using a phone diary at the end of each week: • a) During the last week, did you experience adequate relief of your IBS symptoms, such as abdominal pain, abdominal discomfort, abnormal bowel habits? • b) During the last week, did you experience adequate relief of your abdominal pain and/or discomfort? • c) During the last week, did you experience adequate relief of your abnormal bowel habits? • The subjects rated the following symptoms using the phone diary at the end of each day: • abdominal pain/discomfort (five-point scale); • stool consistency (seven-point Bristol Stool Scale); • stool frequency (number of bowel movements each day); • urgency (five-point scale); • straining (yes or no); • feeling of incomplete defecation (yes or no); • bloating or feeling of abdominal distension (five-point scale). • In Studies S241 A006 and S241.3.009, subjects completed the IBS-QOL Survey at Baseline (Day 1) and at the end of treatment. In Study S24 1.3.0 1 1, subjects completed the IBS-QOL Survey at Baseline (Day 1), at the end of the three-month treatment period, and at the end of rerandomized treatment.
Other secondary efficacy parameters for all three studies included: • Responder rate for the weekly diary questions on adequate relief at each month, where a responder for a month (monthly responder) was defined as a subject who answered the weekly question with “yes” at least twice for that month. The responder rate was the percentage of responders within a treatment group. The all-month responder rate for the weekly diary questions on adequate relief was also evaluated, where an all-month responder was defined as a subject who answered the weekly question with “yes” at least twice for each month. The all-month responder rate was the percentage of all-month responders within a treatment group; • Adequate relief rate for the weekly diary questions was calculated for each subject as the number of weekly assessments with adequate relief (“yes”) divided by the total number of weekly assessments; • Percentage of subjects with adequate relief for the weekly diary questions at each week; • Daily diary questions regarding abdominal pain/discomfort (five-point scale), stool consistency (seven-point scale), stool frequency (number of bowel movements each day), straining (yes or no), urgency (five-point scale), feeling of incomplete evacuation (yes or no), and bloating or feeling of abdominal distention (five-point scale); • QOL data assessed by the IBS-QOL questionnaire; and • Question to determine the interruption of activities.

With `Cc1nccn1C[C@H]1CCc2c(c3cccc4c3n2CCC4)C1=O` [Cilansetron, (R)-(−)-4,5,6,8,9,10-hexahydro-10-[(2-methyl-1H-imidazol-1-yl)methyl]-11H-pyrido-[3,2,1-jk]-carbazol-11-one] the CL/F (clinical; 4 mg) was 3864 (69) mL/min, the CL/F (clinical; 8 mg) was 3851 (103) mL/min and the “DN-AUC(0-inf) ratio 8 mg/4 mg” value (clinical; male) was 109%. For the same compound, the “DN-AUC(0-inf) ratio 16 mg/4 mg” value (clinical; male) was 117%, the “DN-AUC(0-inf) ratio 16 mg/8 mg” value (clinical; male) was 108% and the “DN-AUC(0-last) ratio 8 mg/4 mg” value (clinical; male) was 120%. The “DN-AUC(0-last) ratio 16 mg/4 mg” value (clinical; male) was 132%, the “DN-AUC(0-last) ratio 16 mg/8 mg” value (clinical; male) was 110% and the “DN-Cmax ratio 8 mg/4 mg” value (clinical; male) was 115%. For the same compound, the “DN-Cmax ratio 16 mg/4 mg” value (clinical; male) was 122%, the “DN-Cmax ratio 16 mg/8 mg” value (clinical; male) was 107% and the “Dose excreted unchanged in urine” value (clinical; male) was < 1%. For the same compound, the Tmax (clinical; male) was 1 to 1.25 h, the half-life (clinical; male) was 1.2 to 1.6 h and the AUC(0-inf) (clinical; male, 4 mg) was 26.7 ng·h/mL. For the same compound, the AUC(0-t) (clinical; male, 4 mg) was 23.2 ng·h/mL, the Cmax (clinical; male, 4 mg) was 9.88 ng/mL and the Tmax (clinical; male, 4 mg) was 1.25 h. It also gave a Vd/F (clinical; male, 4 mg) of 522 L, a half-life (clinical; male, 4 mg) of 1.56 h and an AUC(0-inf) (clinical; male, 8 mg) of 59.4 ng·h/mL. The AUC(0-t) (clinical; male, 8 mg) was 55.5 ng·h/mL, the Cmax (clinical; male, 8 mg) was 22.1 ng/mL and the Tmax (clinical; male, 8 mg) was 1 h. The Vd/F (clinical; male, 8 mg) was 472 L, the half-life (clinical; male, 8 mg) was 1.47 h and the Tmax (clinical; male, 16 mg) was 1 h. The “Mean number of stools per day at end of treatment” value ([1]; 2 mg TID) was 2.41 stools per day, the “Abdominal pain/discomfort, mean change from rerandomization Baseline” value (“Abdominal pain/discomfort, mean change” below) ([1]; C/C) was −0.09 and the “Bloating, mean change from rerandomization Baseline” value (from here on “Bloating, mean change”) ([1]; C/C) was −0.05. For the same compound, the “Incomplete evacuation, mean change from Rerandomization Baseline” value ([1]; C/C) was 0.01, the “Stool consistency, mean change from rerandomization Baseline” value (from here on “Stool consistency, mean change”) ([1]; C/C) was −0.09 and the “Stools per day, mean change from rerandomization Baseline” value ([1]; C/C) was −0.02. For the same compound, the “Urgency, mean change from rerandomization Baseline” value (shortened to “Urgency, mean change”) ([1]; C/C) was −0.05, the “Abdominal pain/discomfort, mean change” value ([1]; C/P) was 0.16 and the “Bloating, mean change” value ([1]; C/P) was 0.16. For the same compound, the “Incomplete evacuation, mean change from Rerandomization Baseline” value ([1]; C/P) was 0.05, the “Stool consistency, mean change” value ([1]; C/P) was 0.55 and the “Stools per day, mean change from rerandomization Baseline” value ([1]; C/P) was 0.22. The “Urgency, mean change” value ([1]; C/P) was 0.25, the “Abdominal pain/discomfort, mean change” value ([1]; P/C) was −0.08 and the “Bloating, mean change” value ([1]; P/C) was −0.03. The “Incomplete evacuation, mean change from Rerandomization Baseline” value ([1]; P/C) was −0.02, the “Stool consistency, mean change” value ([1]; P/C) was −0.84 and the “Stools per day, mean change from rerandomization Baseline” value ([1]; P/C) was −0.31. The “Urgency, mean change” value ([1]; P/C) was −0.27, the “Median rate of urgency-free days” value ([1]; end of treatment) was 0.25 and the “Median rate of pain-free days” value ([1]; end of treatment (last two weeks)) was 0.15. The “Bloating or abdominal distention score, mean change from Baseline at end of treatment” value ([1]; in vivo) was −0.43, the “Daily abdominal pain/discomfort score, mean change from Baseline at end of treatment” value ([1]; in vivo) was −0.69 and the “Daily stool consistency score, mean change from Baseline at end of treatment” value ([1]; in vivo) was −1.02. For the same compound, the “Daily urgency score, mean change from Baseline at end of treatment” value ([1]; in vivo) was −0.78, the “Feeling of incomplete evacuation, mean change from Baseline at end of treatment” value ([1]; in vivo) was −0.20 and the “Mean stool consistency score at end of treatment” value ([1]; in vivo) was 4.28. The “Mean straining, mean change from Baseline at end of treatment” value ([1]; in vivo) was 0.05, the “Stools per day, mean change from Baseline at end of treatment” value ([1]; in vivo) was −0.91 and the “Median rate of pain-free days” value ([1]; three-month period) was 0.22. The “Median rate of urgency-free days” value ([1]; three-month period) was 0.31.

Reference: patent US20090176817A1, “Method of Treatment of Diarrhea-Predominant Irritable Bowel Syndrome in a Subject” (priority 2005, published 2009)
